According to PMC11983176 (ACS Omega, 2025):
Like-named read-outs stand apart in the source and are kept apart here. Each block holds one compound with its values, some of them ahead of it.

Experiments:
MCF-7 [1] = experiment: MTT cytotoxicity assay, MCF-7; format: cell-based, human; conditions: read-out: Cytotoxicity (IC50) MCF-7, 48 h of treatment
T47D = experiment: MTT cytotoxicity assay, T47D; format: cell-based, human
MCF-7 [2] = experiment: Cell viability by cell adhesion assay; format: cell-based, human; conditions: MCF-7, 500 to 1.95 μM, 45 min
[3] = Stability in PBS and Tris-HCl buffer by UV-vis spectroscopy; format: physicochemical; conditions: PBS (0.1 M, pH 7.4) and Tris-HCl, 10% DMSO, room temperature, 5 min to 72 h

Compound: 1-Cyclopentyl-2,3-dihydro-1H-benzimidazole [compound 1]
IC50 (MCF-7 [1]): 37 ± 1.93 µM
IC50 (T47D; read-out: Cytotoxicity (IC50) T47D, MTT assay, 48 h of treatment): 41 ± 2.12 µM

Compound: CC/C(=C(\c1ccccc1)c1ccc(OCCN(C)C)cc1)c1ccccc1 [Tamoxifen]
IC50 (T47D; Homo sapiens, T47D, 48 h, read-out: Cytotoxicity (IC50) T47D, MTT assay, 48 h of treatment): 13 ± 0.71 µM
cell killing in adhesion assay (MCF-7 [2]): slightly less initial effects on MCF-7 cells

stability in buffer solution [3]: precipitates appeared immediately
Compound: [Cl][Ag] [silver chloride]

Compound: O=[N+]([O-])[O-].[Ag+] [silver nitrate]
stability in buffer solution [3]: precipitates appeared immediately
